# Measurements reported in patent US9498495B2, “Methods for in vitro differentiation of TH-17+ cells” (New York University, priority 2008, dated 2016).
# B1: IL-23: cytokine, 10 ng/ml IL-23 (eBioscience) (protein, UniProt Q9NPF7 20-189; P29460 23-328, looked up)
# Interleukin-23 subunit alpha: RAVPGGSSPAWTQCQQLSQKLCTLAWSAHPLVGHMDLREEGDEETTNDVPHIQCGDGCDPQGLRDNSQFCLQRIHQGLIFYEKLLGSDIFTGEPSLLPDSPVGQLHASLLGLSQLLQPEGHHWETQQIPSLSPSQPWQRLLLRFKILRSLQAFVAVAARVFAHGAATLSP
# Interleukin-12 subunit beta: IWELKKDVYVVELDWYPDAPGEMVVLTCDTPEEDGITWTLDQSSEVLGSGKTLTIQVKEFGDAGQYTCHKGGEVLSHSLLLLHKKEDGIWSTDILKDQKEPKNKTFLRCEAKNYSGRFTCWWLTTISTDLTFSVKSSRGSSDPQGVTCGAATLSAERVRGDNKEYEYSVECQEDSACPAAEESLPIEVMVDAVHKLKYENYTSSFFIRDIIKPDPPKNLQLKPLKNSRQVEVSWEYPDTWSTPHSYFSLTFCVQVQGKSKREKKDRVFTDKTSATVICRKNASISVRAQDRYYSSSWSEWASVPCS
# What was measured:
# Type in all cases: cell-based, human
# [1] = tested on: Naive cord blood CD4+ T cells; test: Th17 cell polarization of naive cord blood CD4+ T cells in serum-free media (intracellular and surface staining: IL-17, IL-22, FOXP3, CCR6); details: for suppression of TGF-β-induced FOXP3 expression: added to TGF-β
# Experimental: Blood samples were obtained from the New York Blood Center. Mononuclear cells were prepared from buffy coats of healthy adult donors or from cord blood on FicollPAQUE gradients. CD4^+ T cells were isolated on an autoMACS Pro using Miltenyi bead depletion of CD14^+ and CD25^+ cells followed by positive selection of CD4^+ cells. […] Adult CD4^+ T cell subsets and naive cord blood CD4^+ T cells were further purified respectively as CD3^+CD4^+CD25^−CD45RO^−/+ and CD3^+CD4^+CD25^−HLA-DR^−CD45RA^+ by cell sorting on a FACSAria.
# (§1) Cells were cultivated in either RPMI1640 (Invitrogen) supplemented with 10% fetal bovine serum (Hyclone), penicillin-streptomycin, 2 mM glutamine, 10 mM HEPES, 1 mM pyruvate and 0.1 mM non-essential amino acids or serum-free XVIVO-20 (Lonza) supplemented with penicillin-streptomycin in a 37° C. 5% CO2 incubator. CD4^+ T cells were stimulated by addition of anti-mouse IgG magnetic beads (Pierce) previously coated with purified anti-CD3 and anti-CD28 at final concentrations of 1 bead/cell and 1 μg/ml of each antibody. […] Lentiviral supernatants were added at an MOI ranging from 1 to 10. […] For the shRNA experiment, puromycin was added at day 2 at 2 μg/ml. For polarization experiments, cells were seeded at a concentration of 5×10^5 to 10^6 cells/ml in U-bottom 96 well plates with anti-CD3/CD28 coated beads. […] For long-term experiments, cells were split as needed. […] Cells were harvested at day 6 for intracellular staining and real-time PCR analysis except where specified otherwise.
# For intracellular cytokine staining, cells were incubated for 5 hours with 50 ng/ml PMA (Sigma), 500 ng/ml Ionomycin (Sigma), and GolgiStop (BD). Surface staining was performed by incubation with the corresponding fluorescently labeled antibodies for 15 min on ice. Intracellular staining was performed using the Cytofix/Cytoperm buffer set (BD). Briefly, cells were fixed and permeabilized for 30 min at room temperature and stained in permeabilization buffer for 30 min at room temperature. Flow cytometric measures were performed on a LSR II (BD Biosciences) instrument and analyzed using FlowJo software (Tree Star Inc.). Antibodies are detailed in Table 1. FOXP3 was stained using FOXP3 staining buffers (eBioscience). The present inventors used the FJK-16s antibody, which was originally reported as an anti-mouse/rat FoxP3 antibody.
# [2] = tested on: Naive cord blood CD4+ T cells; test: mRNA levels of Th17 markers (IL17, IL26, IL17F, RORC, RORA, IL23R) during Th17 cell differentiation of naive cord blood CD4+ T cells (real-time PCR); details: day 6; for IL-17F expression / IL-23R expression: cytokine alone (with IL-2)
# Experimental: (§2) Blood samples were obtained from the New York Blood Center. Mononuclear cells were prepared from buffy coats of healthy adult donors or from cord blood on FicollPAQUE gradients. CD4^+ T cells were isolated on an autoMACS Pro using Miltenyi bead depletion of CD14^+ and CD25^+ cells followed by positive selection of CD4^+ cells. Cord blood CD4^+ T cells were >97% pure and 100% CD45RA^+ and were used as such for initial transduction experiments. Adult CD4^+ T cell subsets and naive cord blood CD4^+ T cells were further purified respectively as CD3^+CD4^+CD25^−CD45RO^−/+ and CD3^+CD4^+CD25^−HLA-DR^−CD45RA^+ by cell sorting on a FACSAria.
# as §1
# (§3) RNA was extracted by TRIZOL (Invitrogen) and cDNA was synthesized with Superscript II (Invitrogen) and random primers. cDNA was analyzed by real-time quantitative PCR in triplicates by using iQ CYBR Green Supermix (Bio-Rad) or QuantiTect Multiplex PCR mix (Qiagen) in the iCycler Sequence Detection System (Bio-Rad). The starting quantity (SQ) of the initial cDNA sample was calculated from primer-specific standard curves by using the iCycler Data Analysis Software. The expression level of each gene was normalized to beta-actin expression level using the standard curve method. Fold changes were calculated by normalizing to the first sample of each set. Error bars were calculated based on triplicate measurements of each gene. The primer sets for real-time PCR are detailed in Table 2.
# [3] = tested on: Cord blood CD4+ T cells transduced with RORγT; test: IL-17 and FOXP3 expression following RORγT transduction of cord blood CD4+ T cells (intracellular staining); details: for effect on the suppression of IL-17 production induced by TGF-β: RORγT-transduced cells, with TGF-β; for increase of the proportion of IL-17-producing cells after forced expression of RORγT: cytokine 10 ng/ml
# [4] = tested on: memory CD45RO+CD25−CCR6+CD4+ T cells; test: IL-17 production in sorted adult blood memory CD4+ T cells cultured with or without IL-1β in serum-containing media (intracellular staining); details: day 6
# Experimental: as §2
# (§4) Cells were cultivated in either RPMI1640 (Invitrogen) supplemented with 10% fetal bovine serum (Hyclone), penicillin-streptomycin, 2 mM glutamine, 10 mM HEPES, 1 mM pyruvate and 0.1 mM non-essential amino acids or serum-free XVIVO-20 (Lonza) supplemented with penicillin-streptomycin in a 37° C. 5% CO2 incubator. […]
# (§5) For intracellular cytokine staining, cells were incubated for 5 hours with 50 ng/ml PMA (Sigma), 500 ng/ml Ionomycin (Sigma), and GolgiStop (BD). […] Flow cytometric measures were performed on a LSR II (BD Biosciences) instrument and analyzed using FlowJo software (Tree Star Inc.). […]
# [5] = tested on: naive CD45RO−CD25−CCR7+ T cells; test: IL-17 production in sorted adult blood naive CD4+ T cells cultured with or without IL-1β in serum-containing media (intracellular staining); details: day 6
# Experimental: as §2, §4, §5
# RORC = RORC expression in CD45RO− adult naive CD4+ T cells cultivated with cytokines (real-time PCR); details: cytokine alone
# Experimental: as §2, with “FACSAria. […]” for “FACSAria.”
# as §3, with “The expression level of each gene was normalized to beta-actin expression level using the standard curve method.” left out, “The primer sets for real-time PCR are detailed in Table 2.” left out
# [6] = increasing concentration of TGF-β, day 6
molecule,measurement,setting,value
"IL-1β: cytokine, 10 ng/ml IL-1β (eBioscience)",suppression of TGF-β-induced FOXP3 expression,[1]; day 6,not
same,IL-17F expression,[2],Some expression
same,IL-23R expression,[2],not
same,effect on the suppression of IL-17 production induced by TGF-β,[3],partially relieved
same,increase of the proportion of IL-17-producing cells after forced expression of RORγT,[3]; day 6,about two-fold
same,increase of IL-17 production,[4],two-fold
same,effect on IL-17 production,[5],no effect
"IL-6: cytokine, 10 ng/ml IL-6 (eBioscience)",suppression of TGF-β-induced FOXP3 expression,[1]; day 6,able to inhibit
same,induction of IL-17,"[1]; both IL-1β and TGF-β included, day 6","active, albeit not as strongly as IL-23"
same,induction of IL-17,[1]; combined with TGF-β alone,failed to induce
same,effect on the suppression of IL-17 production induced by TGF-β,[3],partially relieved
same,increase of the proportion of IL-17-producing cells after forced expression of RORγT,[3]; day 6,about two-fold
"TGF-β: cytokine, TGF-β1 (PeproTech)",CCR6 cell surface expression,"[1]; TGF-β alone, day 6",induced
same,FOXP3 expression,[1]; [6],induced
same,IL-22 expression,[1]; [6],progressively inhibited
same,RORA expression,[2],slightly induced
same,levels of IL-26 mRNA,[2],increased with the dose
same,RORC expression,[2]; increasing concentrations of TGF-β,gradually induced
same,RORγT (RORC) expression,RORC,induced dose-dependent RORγT expression
same,effect on IL-17 production after forced expression of RORγT,"[3]; various concentrations of TGF-β, day 6",potently suppressed
soluble IL-21R: neutralizing soluble IL-21R (R&D) [reference compound],effect on IL-17 expression,"[1]; IL-23+IL-1β+IL-2+TGF-β, at levels that inhibited STAT3 phosphorylation, day 6",no effect
B1,suppression of TGF-β-induced FOXP3 expression,[1]; day 6,able to suppress
same,IL-17F expression,[2],no effect
same,IL-23R expression,[2],induced to some extent
